Measurements from patent US20110065663A1, “ANTI-CANCER COMBINATION THERAPY” (Katholieke Universiteit Leuven, K.U. Leuven R&D, priority 2008, published 2011).
Read-outs that look alike come from different tables or passages of the source.

Experiments:
M. hyorhinis TP = assay: TP activity in the medium of MCF-7/HYOR cell cultures (HPLC, conversion of nucleoside to free base); assay type: biochemical, Mycoplasma hyorhinis; conditions: for Percent conversion of nucleoside to the free pyrimidine base in MCF-7/HYOR medium: 37° C.
Description: (§1) The TP activity of M. hyorhinis and the conversion of dThd, FdUrd, 5′DFUR and TFT to thymine, 5FU, 5FU or TF-thymine respectively were measured by high-pressure liquid chromatography (HPLC) analysis. MCF-7 and MCF-7/HYOR cells were seeded at a density of 20,000 cells/cm^2 in DMEM with 10% FBS. Four days later, the medium was collected and cleared by centrifugation at 1,400 rpm. For some experiments, the medium of MCF-7/HYOR cells was filtered using a 0.1 μm micro filter (Acrodisc syringe filter, PALL Corporation, East Hills, N.Y.) to remove the mycoplasmas from the medium. 600 μl of the medium was incubated with 200 μM of substrate (dThd, 5′DFUR, TFT or FdUrd) at 37° C. in the presence or absence of 10 μM TPi. At different time points (i.e. 0, 15, 30, 60, 120 minutes and 16 hours), 100 μl aliquots were withdrawn, transferred to Eppendorf tubes and heated at 95° C. for 3 min. Next, the samples were rapidly cooled on ice, exposed for 20 min to 200 μl ice-cold methanol and cleared by centrifugation at 15,000 rpm for 15 minutes. As a positive control, an enzyme activity assay with E. coli TP (Sigma) was performed. For this reaction, 0.025 U of TP were incubated with 200 μM of substrate in TP-buffer (10 mM Tris-HCl, pH 7.6, 1 mM EDTA, 2 mM potassium phosphate and 150 mM NaCl) in a total volume of 600 μl. Aliquots of 100 μl were withdrawn from the reaction mixture at several time points and treated as described above. The nucleosides were separated from their nucleobases on a reversed-phase RP-8 column (Merck, Darmstadt, Germany) and quantified by HPLC analysis (Aliance 2690, Waters, Milford, Mass.). The separation was performed by a linear gradient from 100% buffer B (50 mM NaH2PO4 and 5 mM heptane sulfonic acid, pH 3.2), to 20% buffer B and 80% acetonitrile. […] UV-based detection of all nucleosides was performed at 267 nm.

E. coli TP = biological target: T1, E. coli TP (Escherichia coli, UniProt P07650); assay: Enzyme activity assay with recombinant E. coli TP (positive control); assay type: biochemical; conditions: 0.025 U TP, 200 μM substrate
T1 construct: purchased Sigma
Description: The TP activity of M. hyorhinis and the conversion of dThd, FdUrd, 5′DFUR and TFT to thymine, 5FU, 5FU or TF-thymine respectively were measured by high-pressure liquid chromatography (HPLC) analysis. MCF-7 and MCF-7/HYOR cells were seeded at a density of 20,000 cells/cm^2 in DMEM with 10% FBS. Four days later, the medium was collected and cleared by centrifugation at 1,400 rpm. For some experiments, the medium of MCF-7/HYOR cells was filtered using a 0.1 μm micro filter (Acrodisc syringe filter, PALL Corporation, East Hills, N.Y.) to remove the mycoplasmas from the medium. 600 μl of the medium was incubated with 200 μM of substrate (dThd, 5′DFUR, TFT or FdUrd) at 37° C. in the presence or absence of 10 μM TPi. At different time points (i.e. 0, 15, 30, 60, 120 minutes and 16 hours), 100 μl aliquots were withdrawn, transferred to Eppendorf tubes and heated at 95° C. for 3 min. Next, the samples were rapidly cooled on ice, exposed for 20 min to 200 μl ice-cold methanol and cleared by centrifugation at 15,000 rpm for 15 minutes. As a positive control, an enzyme activity assay with E. coli TP (Sigma) was performed. For this reaction, 0.025 U of TP were incubated with 200 μM of substrate in TP-buffer (10 mM Tris-HCl, pH 7.6, 1 mM EDTA, 2 mM potassium phosphate and 150 mM NaCl) in a total volume of 600 μl. Aliquots of 100 μl were withdrawn from the reaction mixture at several time points and treated as described above. The nucleosides were separated from their nucleobases on a reversed-phase RP-8 column (Merck, Darmstadt, Germany) and quantified by HPLC analysis (Aliance 2690, Waters, Milford, Mass.). The separation was performed by a linear gradient from 100% buffer B (50 mM NaH2PO4 and 5 mM heptane sulfonic acid, pH 3.2), to 20% buffer B and 80% acetonitrile. Retention times of thymine and thymidine were respectively 5.1 and 10.8 minutes. UV-based detection of all nucleosides was performed at 267 nm.

MCF-7/HYOR cell cultures = assay: Nucleoside metabolism experiments, distribution of drug-derived radiolabel in MCF-7/HYOR cell cultures; assay type: cell-based, human; conditions: MCF-7/HYOR
Description: Next, the cells were trypsinized, transferred to Eppendorf tubes and centrifuged for 10 minutes at 1,400 rpm. The pellet was resuspended in 1 ml absolute ice-cold methanol and kept on ice for 20 minutes. After centrifugation for 20 minutes at 13,000 rpm the pellet was washed twice with methanol, resuspended in methanol and transferred to scintillation vials containing 9 ml of Ready safe liquid scintillation reagent (‘Hisafe 3’, Perkin Elmer, Waltham, Mass.). The radioactivity was measured by a Liquid scintillation analyzer (2300 TR, Packard, Canberra, Australia). […] Next, the cells were incubated in 0.5 ml absolute ice-cold methanol and kept on ice for 20 minutes. After centrifugation for 20 minutes at 13,000 rpm, the supernatant was subjected to HPLC analysis. […] The amount of compound incorporated into nucleic acids was measured as described above.

MCF-7/HYOR cells [1] = assay: Nucleotide incorporation assay, MCF-7/HYOR compared with MCF-7 cells; assay type: cell-based, human; conditions: 1 μCi radiolabeled compound; FIG. 4
Description: MCF-7 and MCF-7/HYOR cells were seeded at 10,000 cells/cm. After 48 hours, cells were treated with 1 μCi of ^3H-labeled nucleoside with or without 10 μM TPi. 16 h later, the medium was removed and the cells were washed twice with PBS. Next, the cells were trypsinized, transferred to Eppendorf tubes and centrifuged for 10 minutes at 1,400 rpm. The pellet was resuspended in 1 ml absolute ice-cold methanol and kept on ice for 20 minutes. After centrifugation for 20 minutes at 13,000 rpm the pellet was washed twice with methanol, resuspended in methanol and transferred to scintillation vials containing 9 ml of Ready safe liquid scintillation reagent (‘Hisafe 3’, Perkin Elmer, Waltham, Mass.). The radioactivity was measured by a Liquid scintillation analyzer (2300 TR, Packard, Canberra, Australia).

[2] = Conversion of nucleosides in the medium of uninfected MCF-7 cells; assay type: biochemical, human; conditions: even after 24 hours of incubation; data not shown
Description: as §1, with “At different time points (i.e. 0, 15, 30, 60, 120 minutes and 16 hours), 100 μl aliquots were withdrawn, transferred to Eppendorf tubes and heated at 95° C. for 3 min.” left out

MCF-7 cells = assay: Tumor cell proliferation assay, uninfected MCF-7 cells; assay type: cell-based, human; conditions: Homo sapiens, uninfected MCF-7
Description: MCF-7 and MCF-7/HYOR cells were seeded in 48-well plates at 10,000 cells/cm^2. […] of the test compounds (5FU, 5′DFUR, CIdUrd, BrdUrd, IdUrd and TFT) with or without 10 μM TPi were added. The cells were incubated for another 4 days, trypsinized and counted by a Coulter counter (Analis, Suarlée, Belgium). In some experiments, the antibiotic plasmocin was added one or three days before addition of the test compounds.

MCF-7/HYOR cells [3] = assay: Tumor cell proliferation assay, M. hyorhinis-infected MCF-7 cells; assay type: cell-based, human; conditions: for IC50: Homo sapiens
Description: Mycoplasma hyorhinis (ATCC 17981) was obtained from the American Type Culture Collection (ATCC, Manassas, Va.). The freeze-dried bacteria were reconstituted by adding 1 ml of DMEM. […] The co-culture of MCF-7 cells and M. hyorhinis was maintained under the same conditions as the uninfected MCF-7 cells. […] The cells were incubated for another 4 days, trypsinized and counted by a Coulter counter (Analis, Suarlée, Belgium).

M. hyorhinis = assay: Staining of DNA with Hoechst 33342, growth of M. hyorhinis in MCF-7 cell cultures; assay type: cell-based, Mycoplasma hyorhinis; conditions: 10 μM; 3 days
Description: 10,000 cells/cm^2 (MCF-7 and MCF-7/HYOR) were seeded in 8-well chamber slides (Nunc, Roskilde, Denmark). After 24 hours, 10 μM TPi was added and the cells were incubated for an additional 72 hours. Next, the cells were fixed with Carnoy's fixative (1 part glacial acetic acid to 3 parts absolute methanol) for 10 minutes, air-dried and exposed to the DNA-binding dye Hoechst 33342 (Sigma) at a concentration of 0.5 μg/ml for 15 min at room temperature. Next, the cells were washed twice with de-ionised water and covered with mounting medium (‘glycergel’, Dako, Glostrup, Denmark) and a cover slip. Fluorescence was visualised with a Leica TCS SP5 confocal microscope (Leica, Wetzlar, Germany).

T1 sequence (P07650 whole entry): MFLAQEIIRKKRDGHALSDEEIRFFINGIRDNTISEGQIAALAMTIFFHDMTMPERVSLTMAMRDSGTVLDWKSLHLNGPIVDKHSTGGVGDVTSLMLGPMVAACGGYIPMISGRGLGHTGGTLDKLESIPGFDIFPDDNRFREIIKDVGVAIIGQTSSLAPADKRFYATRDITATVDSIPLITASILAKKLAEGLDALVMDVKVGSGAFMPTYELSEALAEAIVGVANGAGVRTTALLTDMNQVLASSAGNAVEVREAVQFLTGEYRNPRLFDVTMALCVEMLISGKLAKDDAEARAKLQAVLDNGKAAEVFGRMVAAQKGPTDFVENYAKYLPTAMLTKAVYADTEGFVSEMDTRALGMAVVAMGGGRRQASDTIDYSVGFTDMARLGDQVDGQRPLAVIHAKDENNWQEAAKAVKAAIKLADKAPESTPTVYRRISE

Cc1cn([C@H]2C[C@H](O)[C@@H](CO)O2)c(=O)[nH]c1=O [dThd, thymidine]
Percent conversion of nucleoside to the free pyrimidine base in MCF-7/HYOR medium (M. hyorhinis TP; 16 hours, 200 μM substrate): 97% | Thymidine degraded into thymine (M. hyorhinis TP; within 60 minutes, FIG. 3): almost all | Percent conversion of nucleoside to the free pyrimidine base, recombinant E. coli TP (E. coli TP; 2 hours): 82% | Percent conversion of nucleoside to the free pyrimidine base, recombinant E. coli TP (E. coli TP; 16 hours): 93% | % of drug-derived radiolabel, In medium, Base (MCF-7/HYOR cell cultures; 1 μCi, 16 h): 74.6% | % of drug-derived radiolabel, In medium, Nucleoside (MCF-7/HYOR cell cultures; 1 μCi, 16 h): 11.5% | % of drug-derived radiolabel, In the cytosol of the cells, 5′-diphosphate (MCF-7/HYOR cell cultures; 1 μCi, 16 h): 0.3% | % of drug-derived radiolabel, In the cytosol of the cells, 5′-monophosphate (MCF-7/HYOR cell cultures; 1 μCi, 16 h): 0.6% | % of drug-derived radiolabel, In the cytosol of the cells, 5′-triphosphate (MCF-7/HYOR cell cultures; 1 μCi, 16 h): 0.2% | % of drug-derived radiolabel, In the cytosol of the cells, Nucleoside/nucleobase (MCF-7/HYOR cell cultures; 1 μCi, 16 h): 7.5% | % of drug-derived radiolabel, Incorporatio into DNA/RNA (MCF-7/HYOR cell cultures; 1 μCi, 16 h): 5.3% | Share incorporated into the nucleic acids in the presence of TPi (MCF-7/HYOR cell cultures; in the presence of TPi): almost all | Reduction of incorporation into nucleic acids in infected MCF-7/HYOR cells in comparison with uninfected MCF-7 cells (MCF-7/HYOR cells [1]): 85 fold | Conversion in the medium of uninfected MCF-7 cells [2]: no conversion

C[C@H]1O[C@@H](n2cc(F)c(=O)[nH]c2=O)[C@H](O)[C@@H]1O [5′DFUR, 5-fluoro-5′-deoxyuridine]
Percent conversion of nucleoside to the free pyrimidine base in MCF-7/HYOR medium (M. hyorhinis TP; 2 hours, 200 μM substrate): 5% | Percent conversion of nucleoside to the free pyrimidine base in MCF-7/HYOR medium (M. hyorhinis TP; 16 hours, 200 μM substrate): 22% | Percent conversion of nucleoside to the free pyrimidine base, recombinant E. coli TP (E. coli TP; 2 hours): 26% | Percent conversion of nucleoside to the free pyrimidine base, recombinant E. coli TP (E. coli TP; 16 hours): 64% | IC50 (MCF-7 cells; MCF7, 96 h, no TPi, 4 days, read-out: IC50 MCF-7 As such): > 100 µM | IC50 (MCF-7 cells; MCF7, with 10 μM TPi, read-out: IC50 MCF-7 +TPi (10 μM)): > 100 µM | IC50 (MCF-7/HYOR cells [3]; MCF7, read-out: IC50 MCF-7/HYOR +TPi (10 μM)): > 100 µM | IC50 (MCF-7/HYOR cells [3]; MCF7, read-out: IC50 MCF-7/HYOR As such): 3.5 ± 0.53 µM | IC50 (MCF-7/HYOR cells [3]; MCF7, plasmocin 25 μg/ml, 1 day pretreatment, read-out: IC50 MCF-7/HYOR +plasmocin (25 μg/ml) 1 day prior to addition of test compounds): > 100 µM | IC50 (MCF-7/HYOR cells [3]; MCF7, plasmocin 25 μg/ml, 3 days pretreatment, read-out: IC50 MCF-7/HYOR +plasmocin (25 μg/ml) 3 days prior to addition of test compounds): > 100 µM | Ratio (1)/(2) MCF-7/HYOR (MCF-7/HYOR cells [3]; IC50 in the absence of TPi to IC50 in the presence of TPi): <0.035 | Conversion in the medium of uninfected MCF-7 cells [2]: no conversion

Cl.N=C1CCCN1Cc1[nH]c(=O)[nH]c(=O)c1Cl [TPi, 5-chloro-6-(1 [2-iminopyrrolidinyl]methyl)uracil hydrochloride]
Inhibition of conversion of dThd, TFT, FdUrd and 5′DFUR to their free bases in MCF-7/HYOR culture medium (M. hyorhinis TP; 10 μM TPi, 200 μM substrate): completely inhibited | Effect on the growth of M. hyorhinis in MCF-7 cell cultures (M. hyorhinis): not inhibitory
